Consider 12 compounds from ChEMBL document CHEMBL1137320, “A novel class of carbonic anhydrase inhibitors: glycoconjugate benzene sulfonamides prepared by "click-tailing"” (J Med Chem, 2006).

The assay addresses Carbonic anhydrase 9 (Homo sapiens, UniProt Q16790).
A word on the Ki: it is the equilibrium dissociation constant of an inhibitor or competing ligand from its target. Compound `NS(=O)(=O)c1ccc(C(=O)OCc2cn([C@@H]3O[C@H](CO)[C@H](O)[C@H](O)[C@H]3O)nn2)cc1` gave a Ki of 65 nM.

Consider `CC(=O)OC[C@H]1O[C@@H](n2cc(COC(=O)c3ccc(S(N)(=O)=O)cc3)nn2)[C@H](OC(C)=O)[C@@H](OC(C)=O)[C@@H]1O[C@H]1O[C@H](COC(C)=O)[C@@H](OC(C)=O)[C@H](OC(C)=O)[C@H]1OC(C)=O`, for which the Ki was determined as 130 nM. This Ki lies about 2-fold higher than the previous one.

As for `CC(=O)N[C@@H]1[C@@H](OC(C)=O)[C@H](OC(C)=O)[C@@H](COC(C)=O)O[C@H]1n1cc(COC(=O)c2ccc(S(N)(=O)=O)cc2)nn1`, the affinity, expressed as Ki, was 1200 nM.

As to `COC(=O)[C@H]1O[C@@H](n2cc(COC(=O)c3ccc(S(N)(=O)=O)cc3)nn2)[C@H](O)[C@@H](O)[C@@H]1O`, the Ki is 241 nM.

Regarding `NS(=O)(=O)c1ccc(C(=O)OCc2cn([C@@H]3OC[C@@H](O)[C@@H](O)[C@@H]3O)nn2)cc1`, the affinity, expressed as Ki, was 96 nM.

In the case of `COC(=O)[C@H]1O[C@@H](n2cc(CNC(=O)c3ccc(S(N)(=O)=O)cc3)nn2)[C@H](OC(C)=O)[C@@H](OC(C)=O)[C@@H]1OC(C)=O`, the affinity corresponds to a Ki of 471 nM. This Ki lies about 4.9-fold higher than the previous one.

`C#CCOC(=O)c1ccc(S(N)(=O)=O)cc1` displayed a Ki of 104 nM.

Consider `NS(=O)(=O)c1ccc(C(=O)NCc2cn([C@@H]3O[C@H](CO)[C@@H](O)[C@H](O)[C@H]3O)nn2)cc1`, for which the Ki was determined as 442 nM.

Regarding `CC(=O)OC[C@H]1O[C@@H](n2cc(CNC(=O)c3ccc(S(N)(=O)=O)cc3)nn2)[C@H](OC(C)=O)[C@@H](OC(C)=O)[C@H]1OC(C)=O`, the Ki turned out to be 76 nM.

As to `CC(=O)OC[C@H]1O[C@@H](n2cc(CNC(=O)c3ccc(S(N)(=O)=O)cc3)nn2)[C@H](OC(C)=O)[C@@H](OC(C)=O)[C@@H]1OC(C)=O`, affinity was put at a Ki of 430 nM.

Consider `CO[C@H]1O[C@H](Cn2cc(CNC(=O)c3ccc(S(N)(=O)=O)cc3)nn2)[C@@H](O)[C@H](O)[C@H]1O`, for which the affinity, expressed as Ki, was 204 nM.

As to `NS(=O)(=O)c1ccc(C(=O)OCc2cn([C@@H]3O[C@H](CO)[C@@H](O)[C@H](O)[C@H]3O)nn2)cc1`, the Ki is 183 nM.
